According to publication PMC11259170, “Small-molecule probe for IBD risk variant GPR65 I231L alters cytokine signaling networks through positive allosteric modulation” (Science Advances, 2024):
Like-named read-outs stand apart in the source and are kept apart here.

Columns and labels:
hGPR65 = biological target: T1, hGPR65 (Homo sapiens, UniProt Q8IYL9); experiment: cAMP detection in HeLa expression cell line, hGPR65; assay type: cell-based; conditions: for Emax: HeLa, read-out: hGPR Max Activity %; for cAMP production relative to BRD2813, hGPR65: pH 7.2
T1 construct: expressed in transfected cells; host or cells: HeLa (ATCC CCL-2), lentiviral transduction, pLX317
Procedure: (§1) HeLa stable expression cell lines were produced by lentiviral transduction. Briefly, lentiviral plasmids for each GPCR with a C-terminal V5 Tag ([…]) were made in a pLX317 backbone using competent Escherichia coli (New England Biolabs, C3050H). Lenti-X 293 T (Takara, 632810) cells were transfected with the lentiviral plasmids to produce virus. Low-passage HeLa cells (American Type Culture Collection, CCL-2) were then transduced with lentivirus. After 48 hours, HeLa cells were cultured under selection with puromycin (3 μg/ml) and allowed to recover and expand before storing stocks in liquid nitrogen.
(§2) cAMP was measured in cells using the Lance Ultra cAMP Kit. HeLa cells were cultured under puromycin (3 μg/ml) selection. One day before the experiment, cells were seeded in T75 flasks and allowed to adhere overnight. On the day of the experiment, cells were washed twice with Dulbecco’s PBS and lifted using prewarmed 1× versene solution (Gibco, 15040066). Cells were counted in HBSS (Gibco, 14025092) and then resuspended in stimulation buffer prepared according to the manufacturer’s instructions and adjusted to pH 7.2 using 1 M sodium hydroxide. Cells were added to the plate at a density of 1500 cells per well in white opaque 384-well assay ready microplates containing 100 nl of 10 mM compound in DMSO. Cells were stimulated for 30 min at RT, then lysed and incubated with detection reagents for 1 hour in the dark at RT. Plates were read on BMG Labtech PHERAstar FSX (excitation, 337 nm; emission, 620 and 665 nm). Data analysis was performed using GraphPad Prism.

[1] = system: GFP-expressing HeLa cells; experiment: cAMP detection in HeLa expression cell line, GFP control; assay type: cell-based, human; conditions: Homo sapiens, HeLa; for Emax: relative to 100uM forskolin (100%) and DMSO (0%), read-out: GFP Max Activity %
Procedure: as §1, §2

mGPR65 = biological target: T2, mGPR65 (Mus musculus, UniProt Q61038); experiment: cAMP detection in HeLa expression cell line, mGPR65; assay type: cell-based; conditions: for Emax: HeLa, read-out: mGPR Max Activity %; for cAMP production relative to BRD2813, mGPR65: pH 7.2
T2 construct: expressed in transfected cells; host or cells: HeLa (ATCC CCL-2), lentiviral transduction, pLX317
Procedure: as §1, §2

[2] = 1st hGPR column pair, NA = no activity, read-out: hGPR EC50
[3] = 2nd hGPR column pair, NA = no activity, read-out: hGPR EC50
[4] = 1st hGPR column pair, relative to 100uM forskolin (100%) and DMSO (0%), NA = no activity
[5] = 2nd hGPR column pair, relative to 100uM forskolin (100%) and DMSO (0%), NA = no activity
[6] = 2nd GFP column pair, NA = no activity
[7] = 1st mGPR column pair, NA = no activity, read-out: mGPR EC50
[8] = 2nd mGPR column pair, NA = no activity, read-out: mGPR EC50
[9] = 2nd mGPR column pair, relative to 100uM forskolin (100%) and DMSO (0%), NA = no activity
[10] = relative to 100uM forskolin (100%) and DMSO (0%), NA = no activity
[11] = 1st GFP column pair, NA = no activity
[12] = mGPR EC50 (uM), NA = no activity
[13] = second pair, relative to 100uM forskolin (100%) and DMSO (0%)

T2 sequence (Q61038 whole entry): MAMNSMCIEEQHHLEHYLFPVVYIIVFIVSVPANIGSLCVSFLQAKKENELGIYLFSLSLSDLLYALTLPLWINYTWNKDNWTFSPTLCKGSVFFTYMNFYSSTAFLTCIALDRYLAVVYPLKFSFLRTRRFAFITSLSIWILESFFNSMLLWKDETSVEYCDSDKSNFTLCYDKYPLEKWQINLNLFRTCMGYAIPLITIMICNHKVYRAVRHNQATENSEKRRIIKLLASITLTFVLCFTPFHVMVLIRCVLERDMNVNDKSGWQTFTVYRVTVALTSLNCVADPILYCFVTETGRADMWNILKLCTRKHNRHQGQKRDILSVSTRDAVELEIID
T1 sequence (Q8IYL9 whole entry): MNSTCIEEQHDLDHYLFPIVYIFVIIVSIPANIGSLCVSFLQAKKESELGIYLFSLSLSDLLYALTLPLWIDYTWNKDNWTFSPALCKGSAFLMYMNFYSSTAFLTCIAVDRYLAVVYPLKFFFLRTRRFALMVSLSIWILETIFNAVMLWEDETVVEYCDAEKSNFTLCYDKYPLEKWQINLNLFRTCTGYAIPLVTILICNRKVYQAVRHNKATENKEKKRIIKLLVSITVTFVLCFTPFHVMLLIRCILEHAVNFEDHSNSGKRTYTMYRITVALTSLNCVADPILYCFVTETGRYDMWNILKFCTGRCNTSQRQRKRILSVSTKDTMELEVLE

| SMILES | EC50 (hGPR65; [2]) | EC50 (hGPR65; [3]) | Emax (hGPR65; [4]) | Emax (hGPR65; [5]) | EC50 [1, 6] | Emax [1, 6] | EC50 (mGPR65; [7]) | EC50 (mGPR65; [8]) | Emax (mGPR65; [9]) | Emax (mGPR65; [10]) | EC50 [1, 11] | Emax [1, 11] | other results |
| --- | --- | --- | --- | --- | --- | --- | --- | --- | --- | --- | --- | --- | --- |
| CCOCc1ccc(-c2cc(O)n3ncc(C(=O)Nc4ccccc4)c3n2)cc1 [BRD5063] | 4.06 µM | 5.84 µM | 76.1% | 66.6% | 190 nM | 1.85% | 5.47 µM | 2.73 µM | 38% | 52.1% | – | – | – |
| Cc1ccc(NC(=O)c2cnn3c(O)cc(-c4ccc(COC(C)C)cc4)nc23)c(Cl)c1 [BRD5081] | 4.26 µM | 7.63 µM | 80.6% | 63.4% | – | – | 1.01 µM | 1.14 µM | 60.4% | 66.3% | 1620 nM | 2.48% | – |
| Cc1ccc(NC(=O)c2cnn3c(O)cc(-c4ccc(N5CCOCC5)c(Cl)c4)nc23)cc1 [BRD5062] | 1.07 µM | 0.851 µM | 74.5% | 71.6% | 11400 nM | 1.01% | 0.46 µM | 0.284 µM | 55.1% | 50.8% | 24700 nM | 3.17% | – |
| CCS(=O)(=O)c1ccc(NC(=O)c2cnn3c(O)cc(-c4ccc(COC)cc4)nc23)cc1 [BRD7157] | – | – | – | – | 16700 nM | 6.57% | 10.7 µM | 14.6 µM | 19.6% | 64.9% | – | – | EC50 (hGPR65; NA = no activity, read-out: hGPR EC50): 27.2 µM; hGPR Max Activity (hGPR65; [10]): 17.41%; EC50 (mGPR65; 3rd mGPR column pair, NA = no activity, read-out: mGPR EC50): 4.47 µM; mGPR Max Activity (mGPR65; [10]): 44.17% |
| Cc1ccc(NC(=O)c2cnn3c(O)cc(-c4ccc(N5CCN(C)CC5)nc4)nc23)cc1 [BRD5070] | 1.31 µM | 0.0687 µM | 13.4% | 4.57% | 421 nM | 2.13% | 1.35 µM | 2.15 µM | 34.4% | 38.5% | 3200 nM | 2.48% | – |
| Cc1ccc(NC(=O)c2cnn3c(O)cc(-c4ccc(C(N)=O)cc4)nc23)cc1 [BRD5082] | – | – | 0% | – | 17900 nM | 7.17% | – | – | – | 4.93% | 38500 nM | 14.2% | cAMP production relative to BRD2813, hGPR65 (hGPR65): eliminated all cAMP activity; EC50 (mGPR65; [12]): 12.3 µM; cAMP production relative to BRD2813, mGPR65 (mGPR65): eliminated all cAMP activity |
| Cc1ccc(NC(=O)c2cnn3c(O)cc(-c4ccc(C5CCCCC5)cc4)nc23)cc1 [BRD5881] | – | – | – | – | – | – | – | – | – | – | – | – | Emax (hGPR65; first pair, relative to 100uM forskolin (100%) and DMSO (0%)): 39.5%; Emax (hGPR65; [13]): 95.7%; EC50 (hGPR65; SAR cAMP assay, first EC50/Max pair of hGPR columns, read-out: hGPR EC50): 3.88 µM; EC50 (hGPR65; SAR cAMP assay, second EC50/Max pair of hGPR columns, read-out: hGPR EC50): 90.6 µM; EC50 ([1]; SAR cAMP assay, second EC50/Max pair of GFP control columns): 453 nM; Emax ([1]; second pair): 1.64%; Emax (mGPR65; [13]): 9.83%; EC50 (mGPR65; SAR cAMP assay, second EC50/Max pair of mGPR columns, read-out: mGPR EC50): 0.579 µM |
| Cc1ccc(NC(=O)c2cnn3c(O)cc(-c4ccc(N5CCN(C)CC5)cc4)nc23)cc1 [BRD7215] | – | – | 48.2% | 57.7% | 63500 nM | 7.18% | – | – | 48.7% | 57.8% | – | – | EC50 (hGPR65; hGPR EC50 (uM), NA = no activity): 2.74 µM; EC50 (hGPR65; hGPR EC50, NA = no activity): 4.39 µM; cAMP production relative to BRD2813, hGPR65 (hGPR65): decreasing cAMP production; EC50 (mGPR65; mGPR EC50 (uM), 2nd mGPR column pair, NA = no activity): 1.1 µM; EC50 (mGPR65; [12]): 0.161 µM; cAMP production relative to BRD2813, mGPR65 (mGPR65): increasing activity |
| COc1cc(-c2cc(O)n3ncc(C(=O)Nc4ccc(C)cc4)c3n2)ccc1F [BRD5066] | 1.47 µM | 1.84 µM | 67% | 70.4% | 6080 nM | 1.99% | 1.15 µM | 0.781 µM | 29.4% | 31.3% | – | – | – |
